Experimental data published in patent US20210161855A1, “5-LIPOXYGENASE ANTAGONISTS” (INSTITUTO DE MEDICINA MOLECULAR JOÃO LOBO ANTUNES, priority 2017, published 2021).
Read-outs that look alike come from different tables or passages of the source.

What was measured:
[1] = target: T1, 5-LO (Homo sapiens, UniProt P09917); assay: 5-LO product formation in intact human neutrophils; format: cell-based; set-up: endogenous in cells; host or cells: neutrophils isolated from peripheral blood of healthy adult volunteers; intact or sonicated homogenates
T1 sequence (P09917 1-674): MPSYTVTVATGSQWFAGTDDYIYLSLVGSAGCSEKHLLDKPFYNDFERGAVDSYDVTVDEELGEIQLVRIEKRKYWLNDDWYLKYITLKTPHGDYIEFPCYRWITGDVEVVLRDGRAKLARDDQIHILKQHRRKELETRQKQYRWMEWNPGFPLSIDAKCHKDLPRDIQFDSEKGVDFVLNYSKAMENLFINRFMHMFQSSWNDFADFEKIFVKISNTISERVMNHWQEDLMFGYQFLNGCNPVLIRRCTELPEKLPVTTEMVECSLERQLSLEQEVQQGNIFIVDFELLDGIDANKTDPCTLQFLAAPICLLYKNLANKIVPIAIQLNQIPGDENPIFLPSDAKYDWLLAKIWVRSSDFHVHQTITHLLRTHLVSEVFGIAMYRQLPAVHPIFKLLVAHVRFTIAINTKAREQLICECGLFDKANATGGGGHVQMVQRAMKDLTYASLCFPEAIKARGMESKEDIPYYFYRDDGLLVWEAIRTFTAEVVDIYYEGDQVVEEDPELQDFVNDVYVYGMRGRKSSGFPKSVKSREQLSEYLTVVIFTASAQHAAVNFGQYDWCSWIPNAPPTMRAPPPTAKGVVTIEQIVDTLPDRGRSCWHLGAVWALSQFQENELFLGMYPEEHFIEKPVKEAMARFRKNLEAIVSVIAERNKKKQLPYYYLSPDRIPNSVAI
Experimental: Peripheral blood (University Hospital Jena, Germany) was withdrawn from healthy adult volunteers with consent that had not taken any anti-inflammatory drugs during the last 10 days, by venipuncture in heparinized tubes (16 IE heparin/mL blood). The blood was centrifuged at 4000 g for 20 min at 20° C. for preparation of leukocyte concentrates. Leukocyte concentrates were then subjected to dextran sedimentation and centrifugation on lymphocyte separation medium (LSM 1077, PAA, Colbe, Germany). Contaminating erythrocytes of pelleted neutrophils were removed by hypotonic Iysis. […]
Method B. For determination of 5-LO products in intact neutrophils, the cells (5×10^6) were resuspended in 1 mL PGC buffer, preincubated for 15 min at 37° C. with β-lapachone or vehicle (0.1% DMSO), and incubated for 10 min at 37° C. with 2.5 μM Ca^2+-ionophore A23187 plus 20 μM AA. […] 5-LO products (LTB4, tr-LTB4 isomers, and 5-HETE), were analyzed by RP-HPLC and quantities calculated on the basis of the internal standard PGB1. Cysteinyl-LTs C4, D4 and E4 were not detected (amounts were below detection limit), and oxidation products of LTB4 were not determined.
Data are expressed as mean±S.E.M. IC50 values were calculated from averaged measurements at 6 different concentrations of the compound by nonlinear regression using GraphPad Prism software (San Diego, Calif.) one site binding competition. […]

[2] = target: T2, 12-lipoxygenase (12-LO) (Homo sapiens, UniProt P18054); assay: 12-LO inhibition assay, Method A (Cerep); format: biochemical
T2 sequence (P18054 1-663): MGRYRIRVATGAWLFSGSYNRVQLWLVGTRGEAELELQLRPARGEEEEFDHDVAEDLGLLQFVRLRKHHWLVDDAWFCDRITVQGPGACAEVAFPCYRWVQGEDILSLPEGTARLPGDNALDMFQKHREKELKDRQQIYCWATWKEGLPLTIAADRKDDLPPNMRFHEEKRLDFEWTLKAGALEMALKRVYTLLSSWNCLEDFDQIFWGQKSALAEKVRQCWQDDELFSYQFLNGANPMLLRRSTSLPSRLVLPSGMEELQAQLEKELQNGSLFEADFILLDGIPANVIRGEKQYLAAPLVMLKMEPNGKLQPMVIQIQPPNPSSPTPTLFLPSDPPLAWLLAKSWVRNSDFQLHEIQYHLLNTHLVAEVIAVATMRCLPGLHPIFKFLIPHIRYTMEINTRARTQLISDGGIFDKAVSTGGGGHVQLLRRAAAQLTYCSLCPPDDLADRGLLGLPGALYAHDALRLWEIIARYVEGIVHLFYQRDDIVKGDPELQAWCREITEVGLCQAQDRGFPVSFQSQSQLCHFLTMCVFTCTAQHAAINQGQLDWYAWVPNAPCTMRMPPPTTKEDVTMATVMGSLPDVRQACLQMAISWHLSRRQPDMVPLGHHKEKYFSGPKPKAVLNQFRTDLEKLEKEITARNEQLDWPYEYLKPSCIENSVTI
Experimental: Method A: 5-Lipoxygenase (5-LO), 12-lipoxygenase (12-LO) and 15-lipoxygenase-2 (15-LO-2) inhibition assays were performed at Cerep, SA (Celle l'Evescault, France) on a fee-for-service basis (Ref 0772^36, 0883^37 and 0893^38, respectively), as described in Table 1.

[3] = target: T3, purified human 5-LO (Homo sapiens, UniProt P09917); assay: Intrinsic tryptophan fluorescence; format: binding; details: 1 mM dithiothreitol, increasing concentrations
T3 construct: purchased Abcam ab114310
T3 sequence (P09917 1-674): T1 sequence (P09917 1-674)
Experimental: 5-Lipoxygenase (Cat No. ab114310, Abcam) was concentrated to 0.5 μM in buffer (50 mM Tris-HCl, pH 8.0, 5 mM CaCl2). […] The final DMSO concentration was kept under 0.1%. Fluorescent measurements were performed using a 1 cm pathlength quartz cuvette. Spectra were collected in an Edinburgh Instruments FLS920 Series Fluorescence Spectrophotometer at 25° C. with fluorescence excitation and scanning emission set to 295 nm and 310 to 450 nm, respectively. All assays were carried out in triplicate.

Compound: CC1(C)CCC2=C(O1)c1ccccc1C(=O)C2=O [Compound 1, 3,4-dihydro-2,2-dimethyl-2H-naphtho[1,2-b]pyran-5,6-dione]
- IC50 ([1]; 1 mM DTT, n=4, read-out: IC50, 5-LO activity in intact human neutrophils supplemented with DTT): 0.42 µM
- IC50 ([1]; without DTT, A23187 plus arachidonic acid, n=3, read-out: IC50 (5-LO), intact human neutrophils): 8.6 µM
- inhibition at 5 µM [2]: 38%
- Tryptophan fluorescence shift [3]: blue shift
